The values that follow come from the Biogen ADME set (Fang et al. 2023).

The conditions of the data set: for aqueous solubility: pH 6.8.

Values after ≈ are worked out from the molar mass of the structure shown.

`COc1cc(CNc2nnn[nH]2)cc(Br)c1OCc1ccc(Cl)cc1`: the MDR1-MDCK efflux ratio was 4.03; the intrinsic clearance, human liver microsomes was determined as 10.5 mL/min/kg; the intrinsic clearance, rat liver microsomes came to 74.5 mL/min/kg; the aqueous solubility was 1.88 µg/mL (≈ 4.43 µM).

Regarding `c1cnc(NCc2cccc3cnccc23)nc1`, the intrinsic clearance, human liver microsomes was 60.5 mL/min/kg and the intrinsic clearance, rat liver microsomes was determined as 178 mL/min/kg.

Regarding `COc1ccc2cc(C(=O)NCc3nnc4n3CCCCC4)ccc2c1`, the MDR1-MDCK efflux ratio is 35.2; the intrinsic clearance, human liver microsomes is 13.8 mL/min/kg; the intrinsic clearance, rat liver microsomes came out at 655 mL/min/kg.

As for `O=C(Nc1cn(CCOCC(F)(F)F)nc1-c1ccccn1)c1coc(-c2cn[nH]c2)n1`, the MDR1-MDCK efflux ratio is 6.03; the intrinsic clearance, human liver microsomes is 51.7 mL/min/kg; the intrinsic clearance, rat liver microsomes is 518 mL/min/kg.

For `Cc1cc(F)ccc1CC(=O)N[C@@H]1CCOC[C@H]1OCCO`, the MDR1-MDCK efflux ratio was 19.7; the intrinsic clearance, human liver microsomes is at most 4.74 mL/min/kg; the intrinsic clearance, rat liver microsomes was at most 10.7 mL/min/kg; the aqueous solubility amounted to 47.8 µg/mL (≈ 153 µM).

As to `COc1cc(CCNC2CCC3(CC2)OCCO3)ccc1F`, the MDR1-MDCK efflux ratio came to 1; the intrinsic clearance, human liver microsomes came out at 60.6 mL/min/kg; the intrinsic clearance, rat liver microsomes came to 2240 mL/min/kg.

Regarding `CC(C)C[C@@H](C(N)=O)n1ccnc1-c1cccc2ccccc12`, the MDR1-MDCK efflux ratio worked out at 47.6; the intrinsic clearance, human liver microsomes worked out at 329 mL/min/kg; the intrinsic clearance, rat liver microsomes came out at 1410 mL/min/kg; the aqueous solubility worked out at 32.6 µg/mL (≈ 106 µM).

`CCCn1ncc(CN2CCC(c3ncc[nH]3)CC2)c1C` returned an intrinsic clearance, human liver microsomes of 7.33 mL/min/kg and an intrinsic clearance, rat liver microsomes of 498 mL/min/kg.

On to `CCC(C)(C)c1ccc(Oc2ccc(NC3=NN(c4ccccc4)C(=O)C3)cc2)cc1`, for which the intrinsic clearance, human liver microsomes worked out at 7.61 mL/min/kg and the intrinsic clearance, rat liver microsomes was determined as 17.1 mL/min/kg.

For the compound `COc1ccc(COc2ccc(Cc3cnc(N)nc3N)cc2OC)cc1`, the MDR1-MDCK efflux ratio amounted to 11; the intrinsic clearance, human liver microsomes was determined as 13.3 mL/min/kg; the intrinsic clearance, rat liver microsomes came to 249 mL/min/kg.

In the case of `Cn1ncc2cc(-c3ccnc4[nH]ccc34)ccc21`, the MDR1-MDCK efflux ratio worked out at 0.608; the intrinsic clearance, human liver microsomes was found to be 117 mL/min/kg; the intrinsic clearance, rat liver microsomes was 689 mL/min/kg; the aqueous solubility came to 4.67 µg/mL (≈ 18.8 µM).

Turning to `N#CC1(NC(=O)Cc2cc3c(ccc4ccccc43)o2)CCOCC1`, the intrinsic clearance, human liver microsomes was 87.3 mL/min/kg and the intrinsic clearance, rat liver microsomes stood at 705 mL/min/kg.

Compound `O=C(CCCCCCC(=O)Nc1ccccc1)NO` showed an intrinsic clearance, human liver microsomes of at most 4.74 mL/min/kg and an intrinsic clearance, rat liver microsomes of 27.4 mL/min/kg.

Turning to `COc1nc(C#N)c(N2CCOCC2)o1`, the aqueous solubility came out at 44.4 µg/mL (≈ 212 µM).

Compound `CCc1cnc(CCNc2cncc(Cl)n2)s1` gave an intrinsic clearance, human liver microsomes of 183 mL/min/kg; an intrinsic clearance, rat liver microsomes of 855 mL/min/kg; an aqueous solubility of 48 µg/mL (≈ 179 µM).

For `Cc1cnc(-c2nc(NCc3ccccn3)ncc2-c2onc(C)c2C)cn1`, the MDR1-MDCK efflux ratio is 10.7; the intrinsic clearance, human liver microsomes is 116 mL/min/kg; the intrinsic clearance, rat liver microsomes was found to be 1040 mL/min/kg; the aqueous solubility was 59 µg/mL (≈ 158 µM).

With `CS(=O)(=O)c1ccc(-c2nnc(/C=C/c3nnc(-c4ccc(C#N)cc4)o3)n2-c2ccccc2Cl)nc1`, the MDR1-MDCK efflux ratio was 38.3 and the aqueous solubility was determined as 0.9 µg/mL (≈ 1.7 µM).

`Cc1[nH]c2ccc(Cl)cc2c1CC(=O)N1CCC(Cc2ncncc2C(N)=O)CC1`: the MDR1-MDCK efflux ratio was determined as 18.6; the intrinsic clearance, human liver microsomes is 357 mL/min/kg; the intrinsic clearance, rat liver microsomes stood at 1170 mL/min/kg; the aqueous solubility is 46.5 µg/mL (≈ 109 µM).

`Nc1nc2ccccc2nc1N1CCCC1`: the MDR1-MDCK efflux ratio was 0.533; the intrinsic clearance, human liver microsomes amounted to 232 mL/min/kg; the intrinsic clearance, rat liver microsomes was 337 mL/min/kg; the aqueous solubility came out at 29.9 µg/mL (≈ 139 µM).

In the case of `CCOC(=O)Nc1ccc2c(c1)N(C(=O)CN(CC)CC)c1ccccc1CC2`, the MDR1-MDCK efflux ratio stood at 21.7; the intrinsic clearance, human liver microsomes was 44.9 mL/min/kg; the intrinsic clearance, rat liver microsomes was determined as 360 mL/min/kg; the aqueous solubility worked out at 86.4 µg/mL (≈ 218 µM).

In the case of `CC(C)(C)OC(=O)N1CCCN1C(=O)c1cc2cc(Cl)ccc2[nH]1`, the intrinsic clearance, human liver microsomes turned out to be 47.2 mL/min/kg and the intrinsic clearance, rat liver microsomes was determined as 687 mL/min/kg.

As to `NC(=O)c1noc([C@@H](CCCC2CCCCC2)CC(=O)NO)n1`, the intrinsic clearance, human liver microsomes came to 7.31 mL/min/kg.

With `Cc1c(C(=O)Nc2ccc(CO)cc2)nnn1Cc1ccc(Cl)c(Cl)c1`, the MDR1-MDCK efflux ratio turned out to be 0.564; the intrinsic clearance, human liver microsomes came out at 5.12 mL/min/kg; the intrinsic clearance, rat liver microsomes was 50.8 mL/min/kg.

As to `CC(C)(C)c1cnc(CN2CCC(=O)Nc3cc(F)ccc32)o1`, the MDR1-MDCK efflux ratio is 1.92; the intrinsic clearance, human liver microsomes was found to be 98.6 mL/min/kg; the intrinsic clearance, rat liver microsomes is 950 mL/min/kg.

As to `CC(=O)N1CCN(C(=O)c2ccc(-c3ccc(F)cc3)cc2F)CC1`, the MDR1-MDCK efflux ratio is 1.47; the intrinsic clearance, human liver microsomes was at most 4.74 mL/min/kg; the intrinsic clearance, rat liver microsomes was 20 mL/min/kg; the aqueous solubility came to 74.5 µg/mL (≈ 216 µM).

`C=CCNC(=O)C1(Cc2ccc(-c3ccccc3)cc2)CCN(C(=O)c2cccnc2)CC1`: the MDR1-MDCK efflux ratio was 28; the intrinsic clearance, human liver microsomes came out at 76.7 mL/min/kg; the intrinsic clearance, rat liver microsomes was determined as 557 mL/min/kg; the aqueous solubility worked out at 4 µg/mL (≈ 9.1 µM).

For the compound `CCc1sc(N)nc1-c1ccc(OC)cc1`, the MDR1-MDCK efflux ratio turned out to be 0.563; the intrinsic clearance, human liver microsomes stood at 185 mL/min/kg; the intrinsic clearance, rat liver microsomes was 491 mL/min/kg.

`O=C(c1ccccc1)N1CCN2C(=O)N(Cc3ccccc3)C(=O)[C@H]2C1`: the MDR1-MDCK efflux ratio was found to be 1.52; the intrinsic clearance, human liver microsomes stood at 6.77 mL/min/kg; the intrinsic clearance, rat liver microsomes came to 78.8 mL/min/kg; the aqueous solubility was found to be 62.3 µg/mL (≈ 178 µM).

Consider `CS(=O)(=O)c1cccc(CNc2nc(Nc3ccc4c(c3)CCC(=O)N4)ncc2C(F)(F)F)c1`, for which the intrinsic clearance, human liver microsomes stood at 14.2 mL/min/kg; the intrinsic clearance, rat liver microsomes turned out to be 133 mL/min/kg; the aqueous solubility is 2.96 µg/mL (≈ 6.03 µM).

Regarding `COc1ccc(CN2CCc3nc(-c4cccnc4)nc(O)c3C2)c(C)c1C`, the MDR1-MDCK efflux ratio amounted to 3.34; the intrinsic clearance, human liver microsomes worked out at 19.2 mL/min/kg; the intrinsic clearance, rat liver microsomes was 51.7 mL/min/kg; the aqueous solubility was found to be 8.44 µg/mL (≈ 22.4 µM).

Consider `c1ccc(CN2CCn3nccc3C2)cc1`, for which the MDR1-MDCK efflux ratio was 0.584; the intrinsic clearance, human liver microsomes is at most 4.74 mL/min/kg; the intrinsic clearance, rat liver microsomes was found to be 31 mL/min/kg; the aqueous solubility was 15.3 µg/mL (≈ 71.7 µM).

In the case of `c1ccc2nc(NCCn3ccnc3)cnc2c1`, the MDR1-MDCK efflux ratio is 3.5; the intrinsic clearance, human liver microsomes came to 8.75 mL/min/kg; the intrinsic clearance, rat liver microsomes was 441 mL/min/kg.

Turning to `CC1CCN([C@H](c2ccc(F)cc2)c2ccc([C@@H](C)C(=O)O)cc2-c2ccc(C(F)(F)F)cc2)CC1`, the MDR1-MDCK efflux ratio was 1.99; the intrinsic clearance, human liver microsomes worked out at 7.84 mL/min/kg; the intrinsic clearance, rat liver microsomes was 17.7 mL/min/kg; the aqueous solubility was found to be 39.5 µg/mL (≈ 79.1 µM).

In the case of `CN(CCO)C(=O)c1ccc(-c2cccc(C(F)(F)F)n2)cc1`, the MDR1-MDCK efflux ratio was 1.52; the intrinsic clearance, human liver microsomes was at most 4.74 mL/min/kg; the intrinsic clearance, rat liver microsomes stood at 54.3 mL/min/kg.

Regarding `CN(C)C1(CNC(=O)Cn2ccc(=O)cc2)CCCCC1`, the MDR1-MDCK efflux ratio stood at 0.273; the intrinsic clearance, human liver microsomes amounted to 5.3 mL/min/kg; the intrinsic clearance, rat liver microsomes is 16.1 mL/min/kg.

In the case of `CC(C)c1nc(NCc2cccnc2)n(C)n1`, the MDR1-MDCK efflux ratio turned out to be 3.72; the intrinsic clearance, human liver microsomes is at most 4.74 mL/min/kg; the intrinsic clearance, rat liver microsomes is at most 10.7 mL/min/kg; the aqueous solubility was 38.2 µg/mL (≈ 165 µM).

With `O=C(CC1CCNCC1)NCCc1ccccc1F`, the MDR1-MDCK efflux ratio amounted to 8.79; the intrinsic clearance, human liver microsomes is at most 4.74 mL/min/kg; the intrinsic clearance, rat liver microsomes amounted to 21.9 mL/min/kg; the aqueous solubility worked out at 58.5 µg/mL (≈ 221 µM).

Regarding `Cc1cccc(OCC(=O)Nc2ccc3c(c2)C(=O)N(c2ccccc2)C3=O)c1`, the MDR1-MDCK efflux ratio turned out to be 15.9 and the aqueous solubility worked out at 0.41 µg/mL (≈ 1.06 µM).

Take `Cc1ccn(-c2ccc3[nH]c4c(c3c2)CCCC4=O)n1`: the intrinsic clearance, human liver microsomes was determined as 137 mL/min/kg; the intrinsic clearance, rat liver microsomes amounted to 512 mL/min/kg; the aqueous solubility is 9.65 µg/mL (≈ 36.4 µM).

`Cc1nc(N(C)C)nc(C)c1NC(=O)C1CCCCC1`: the MDR1-MDCK efflux ratio was 0.656; the intrinsic clearance, human liver microsomes was determined as 6.25 mL/min/kg; the intrinsic clearance, rat liver microsomes stood at 75.4 mL/min/kg; the aqueous solubility amounted to 49.3 µg/mL (≈ 179 µM).

Consider `CCCN(C(=O)c1c(CC)noc1C)C1Cc2ccccc2C1`, for which the MDR1-MDCK efflux ratio turned out to be 0.947; the intrinsic clearance, human liver microsomes turned out to be 182 mL/min/kg; the intrinsic clearance, rat liver microsomes turned out to be 2380 mL/min/kg; the aqueous solubility worked out at 37.3 µg/mL (≈ 119 µM).

For `Cc1nc(NCc2ccc(F)c(Cl)c2)n(C)n1`, the MDR1-MDCK efflux ratio was found to be 0.789; the intrinsic clearance, human liver microsomes is 7.77 mL/min/kg; the intrinsic clearance, rat liver microsomes was found to be 35.6 mL/min/kg; the aqueous solubility is 43.7 µg/mL (≈ 172 µM).

Consider `CCOC(=O)c1ccc(NC(=O)Cn2cnc3ccccc32)cc1`, for which the MDR1-MDCK efflux ratio worked out at 4.28; the intrinsic clearance, human liver microsomes stood at 7.03 mL/min/kg; the intrinsic clearance, rat liver microsomes worked out at 521 mL/min/kg; the aqueous solubility amounted to 18.4 µg/mL (≈ 56.9 µM).

As to `Cc1nn(C)cc1CNc1nc(-c2cnccn2)nc2sc3c(c12)CCCC3`, the MDR1-MDCK efflux ratio was 1.92; the intrinsic clearance, human liver microsomes was found to be 273 mL/min/kg; the intrinsic clearance, rat liver microsomes amounted to 2410 mL/min/kg; the aqueous solubility worked out at 50.6 µg/mL (≈ 129 µM).

In the case of `CN1C(=O)COc2ccc(NC(=O)CCN3C(=O)COc4ccc(Cl)cc43)cc21`, the MDR1-MDCK efflux ratio worked out at 9.31; the intrinsic clearance, human liver microsomes was 155 mL/min/kg; the intrinsic clearance, rat liver microsomes stood at 1170 mL/min/kg; the aqueous solubility was found to be 1.5 µg/mL (≈ 3.61 µM).

Consider `Cc1ccc(C)c(C(=O)Nc2cnc3c(c2)c(C)nn3C)c1`, for which the MDR1-MDCK efflux ratio turned out to be 0.67; the intrinsic clearance, human liver microsomes was 6.52 mL/min/kg; the intrinsic clearance, rat liver microsomes was found to be 129 mL/min/kg; the aqueous solubility amounted to 2.33 µg/mL (≈ 7.92 µM).

By aqueous solubility is commonly meant the dissolved amount per volume that the medium holds. Read a low aqueous solubility as little dissolved substance.
